Measurements as given in PubChem BioAssay (NCI).
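Protocol summary: plate cells (96-well), add compound at 5 concentrations, incubate 48 h, interpolate endpoints linearly. GI50 is the concentration that inhibits growth by half. TGI is the concentration that stops growth completely.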

Assays:
Experiment in all cases: inhibition of tumour cell growth, NCI panel, 48 h
786-0 renal = tested on: 786-0 renal
A498 renal = tested on: A498 renal
A549 NSCLC = tested on: A549 NSCLC
ACHN renal = tested on: ACHN renal
BT-549 breast = tested on: BT-549 breast
CAKI-1 renal = tested on: CAKI-1 renal
COLO 205 colon = tested on: COLO 205 colon
DU-145 prostate = tested on: DU-145 prostate
EKVX NSCLC = tested on: EKVX NSCLC
HCC-2998 colon = tested on: HCC-2998 colon
HCT-116 colon = tested on: HCT-116 colon
HCT-15 colon = tested on: HCT-15 colon
HL-60(TB) leukemia = tested on: HL-60(TB) leukemia
HOP-62 NSCLC = tested on: HOP-62 NSCLC
HOP-92 NSCLC = tested on: HOP-92 NSCLC
HS 578T breast = tested on: HS 578T breast
HT29 colon = tested on: HT29 colon
IGROV1 ovarian = tested on: IGROV1 ovarian
K-562 leukemia = tested on: K-562 leukemia
KM12 colon = tested on: KM12 colon
LOX IMVI melanoma = tested on: LOX IMVI melanoma
M14 melanoma = tested on: M14 melanoma
MALME-3M melanoma = tested on: MALME-3M melanoma
MCF7 breast = tested on: MCF7 breast
MDA-MB-231 breast = tested on: MDA-MB-231 breast
MDA-MB-435 = tested on: MDA-MB-435
MOLT-4 leukemia = tested on: MOLT-4 leukemia
NCI-H226 lung = tested on: NCI-H226 lung
NCI-H23 lung = tested on: NCI-H23 lung
NCI-H460 lung = tested on: NCI-H460 lung
NCI-H522 lung = tested on: NCI-H522 lung
NCI/ADR-RES ovarian = tested on: NCI/ADR-RES ovarian
OVCAR-3 ovarian = tested on: OVCAR-3 ovarian
OVCAR-4 ovarian = tested on: OVCAR-4 ovarian
OVCAR-5 ovarian = tested on: OVCAR-5 ovarian
OVCAR-8 ovarian = tested on: OVCAR-8 ovarian
PC-3 prostate = tested on: PC-3 prostate
RPMI-8226 leukemia = tested on: RPMI-8226 leukemia
RXF 393 renal = tested on: RXF 393 renal
SF-268 CNS = tested on: SF-268 CNS
SF-295 CNS = tested on: SF-295 CNS
SF-539 CNS = tested on: SF-539 CNS
SK-MEL-2 melanoma = tested on: SK-MEL-2 melanoma
SK-MEL-28 melanoma = tested on: SK-MEL-28 melanoma
SK-MEL-5 melanoma = tested on: SK-MEL-5 melanoma
SK-OV-3 ovarian = tested on: SK-OV-3 ovarian
SN12C renal = tested on: SN12C renal
SNB-19 CNS = tested on: SNB-19 CNS
SNB-75 CNS = tested on: SNB-75 CNS
SR leukemia = tested on: SR leukemia
SW-620 colon = tested on: SW-620 colon
T-47D breast = tested on: T-47D breast
TK-10 renal = tested on: TK-10 renal
U251 CNS = tested on: U251 CNS
UACC-257 melanoma = tested on: UACC-257 melanoma
UACC-62 melanoma = tested on: UACC-62 melanoma
UO-31 renal = tested on: UO-31 renal

`COc1ccc2oc(=O)cc(C3c4ccc([nH]4)C(c4cc(=O)oc5ccc(OC)cc45)c4ccc([nH]4)C(c4cc(=O)oc5ccc(OC)cc45)c4ccc([nH]4)C(c4cc(=O)oc5ccc(OC)cc45)c4ccc3[nH]4)c2c1` (centres undefined) gave a GI50 (786-0 renal) of 1000 nM, a TGI (786-0 renal) of 2200 nM and a GI50 (A498 renal) of 4090 nM. The TGI (A498 renal) was 12700 nM, the GI50 (A549 NSCLC) was 4230 nM and the TGI (A549 NSCLC) was 14300 nM. For the same molecule, the GI50 (ACHN renal) was 2120 nM, the TGI (ACHN renal) was 6710 nM and the GI50 (BT-549 breast) was 2020 nM. It also gave a TGI (BT-549 breast) of 5360 nM, a GI50 (CAKI-1 renal) of 2160 nM and a TGI (CAKI-1 renal) of 6770 nM. The GI50 (COLO 205 colon) was 1750 nM, the TGI (COLO 205 colon) was 3600 nM and the GI50 (DU-145 prostate) was 2070 nM. The TGI (DU-145 prostate) was 4750 nM, the GI50 (EKVX NSCLC) was 7580 nM and the TGI (EKVX NSCLC) was 22300 nM. It also gave a GI50 (HCC-2998 colon) of 2170 nM, a TGI (HCC-2998 colon) of 4060 nM and a GI50 (HCT-116 colon) of 570 nM. The TGI (HCT-116 colon) was 1930 nM, the GI50 (HCT-15 colon) was 399 nM and the TGI (HCT-15 colon) was 1530 nM. It also gave a GI50 (HL-60(TB) leukemia) of 357 nM, a TGI (HL-60(TB) leukemia) of 976 nM and a GI50 (HOP-62 NSCLC) of 2730 nM. For the same molecule, the TGI (HOP-62 NSCLC) was 9560 nM, the GI50 (HOP-92 NSCLC) was 2050 nM and the TGI (HOP-92 NSCLC) was 6500 nM. For the same molecule, the GI50 (HS 578T breast) was 2800 nM, the TGI (HS 578T breast) was 9430 nM and the GI50 (HT29 colon) was 2280 nM. The TGI (HT29 colon) was 5440 nM, the GI50 (IGROV1 ovarian) was 2440 nM and the TGI (IGROV1 ovarian) was 10800 nM. The GI50 (K-562 leukemia) was 413 nM, the TGI (K-562 leukemia) was 2030 nM and the GI50 (KM12 colon) was 2910 nM. The TGI (KM12 colon) was 10800 nM, the GI50 (LOX IMVI melanoma) was 814 nM and the TGI (LOX IMVI melanoma) was 2430 nM. The GI50 (M14 melanoma) was 1240 nM, the TGI (M14 melanoma) was 4600 nM and the GI50 (MALME-3M melanoma) was 1540 nM. The TGI (MALME-3M melanoma) was 3730 nM, the GI50 (MCF7 breast) was 364 nM and the TGI (MCF7 breast) was 2160 nM. The GI50 (MDA-MB-231 breast) was 2150 nM, the TGI (MDA-MB-231 breast) was 9040 nM and the GI50 (MDA-MB-435) was 1900 nM. It also gave a TGI (MDA-MB-435) of 6660 nM, a GI50 (MOLT-4 leukemia) of 414 nM and a TGI (MOLT-4 leukemia) of 4240 nM. The GI50 (NCI-H226 lung) was 1360 nM, the TGI (NCI-H226 lung) was 4630 nM and the GI50 (NCI-H23 lung) was 2370 nM. It also gave a TGI (NCI-H23 lung) of 6420 nM, a GI50 (NCI-H460 lung) of 3110 nM and a TGI (NCI-H460 lung) of 10400 nM. The GI50 (NCI-H522 lung) was 1650 nM, the TGI (NCI-H522 lung) was 3160 nM and the GI50 (NCI/ADR-RES ovarian) was 594 nM. It also gave a TGI (NCI/ADR-RES ovarian) of 24800 nM, a GI50 (OVCAR-3 ovarian) of 230 nM and a TGI (OVCAR-3 ovarian) of 611 nM. The GI50 (OVCAR-4 ovarian) was 1260 nM, the TGI (OVCAR-4 ovarian) was 2780 nM and the GI50 (OVCAR-5 ovarian) was 2980 nM. For the same molecule, the TGI (OVCAR-5 ovarian) was 11100 nM, the GI50 (OVCAR-8 ovarian) was 619 nM and the TGI (OVCAR-8 ovarian) was 2780 nM. For the same molecule, the GI50 (PC-3 prostate) was 2210 nM, the TGI (PC-3 prostate) was 6760 nM and the GI50 (RPMI-8226 leukemia) was 432 nM. The TGI (RPMI-8226 leukemia) was 2040 nM, the GI50 (RXF 393 renal) was 318 nM and the TGI (RXF 393 renal) was 950 nM. It also gave a GI50 (SF-268 CNS) of 2890 nM, a TGI (SF-268 CNS) of 11200 nM and a GI50 (SF-295 CNS) of 2820 nM. The TGI (SF-295 CNS) was 10600 nM, the GI50 (SF-539 CNS) was 1700 nM and the TGI (SF-539 CNS) was 3910 nM. The GI50 (SK-MEL-2 melanoma) was 3020 nM, the TGI (SK-MEL-2 melanoma) was 9500 nM and the GI50 (SK-MEL-28 melanoma) was 2480 nM. It also gave a TGI (SK-MEL-28 melanoma) of 12900 nM, a GI50 (SK-MEL-5 melanoma) of 2210 nM and a TGI (SK-MEL-5 melanoma) of 9070 nM. It also gave a GI50 (SK-OV-3 ovarian) of 2450 nM, a TGI (SK-OV-3 ovarian) of 7330 nM and a GI50 (SN12C renal) of 3120 nM. For the same molecule, the TGI (SN12C renal) was 12700 nM, the GI50 (SNB-19 CNS) was 5480 nM and the TGI (SNB-19 CNS) was 18300 nM. It also gave a GI50 (SNB-75 CNS) of 2710 nM, a TGI (SNB-75 CNS) of 14800 nM and a GI50 (SR leukemia) of 371 nM. It also gave a TGI (SR leukemia) of 1660 nM, a GI50 (SW-620 colon) of 389 nM and a TGI (SW-620 colon) of 1690 nM. It also gave a GI50 (T-47D breast) of 475 nM, a TGI (T-47D breast) of 3690 nM and a GI50 (TK-10 renal) of 1580 nM. For the same molecule, the TGI (TK-10 renal) was 2950 nM, the GI50 (U251 CNS) was 4000 nM and the TGI (U251 CNS) was 13900 nM. For the same molecule, the GI50 (UACC-257 melanoma) was 2250 nM, the TGI (UACC-257 melanoma) was 13200 nM and the GI50 (UACC-62 melanoma) was 2690 nM. It also gave a TGI (UACC-62 melanoma) of 7810 nM, a GI50 (UO-31 renal) of 1220 nM and a TGI (UO-31 renal) of 3740 nM.
